In brackets after ≈: the same amount, converted by molar mass. Activity calls are given as the source filed them. No cut-off for these calls is given here.
Key:
Bacillus subtilis [1] = test: microbe, parasite or virus in culture; conditions: MTCC 736
Description: Synergistic antibacterial activity against Bacillus subtilis MTCC 736 assessed as inhibition of bacterial growth incubated overnight in presence of LT-SB23 by serial dilution based spectrophotometer

Enterococcus faecalis [2] = test: microbe, parasite or virus in culture; conditions: MTCC 439
Description: Synergistic antibacterial activity against Enterococcus faecalis MTCC 439 assessed as inhibition of bacterial growth incubated overnight in presence of LT-SB5 by serial dilution based spectrophotometer

Bacillus subtilis [3] = test: microbe, parasite or virus in culture; conditions: MTCC 736; remark: listed apart in the source
Description: Synergistic antibacterial activity against Bacillus subtilis MTCC 736 assessed as inhibition of bacterial growth incubated overnight in presence of LT-SB5 by serial dilution based spectrophotometer

Staphylococcus aureus [4] = test: Antibacterial activity against Staphylococcus aureus MTCC 902 assessed as diameter of zone of inhibition at 500 ug/ml by agar disk diffusion method; assay type: functional; conditions: read-out: DIZ
Salmonella typhi [5] = test: Synergistic antibacterial activity against Salmonella typhi assessed as inhibition of bacterial growth incubated overnight in presence of LT-SB23 by serial dilution based spectrophotometer; conditions: Salmonella enterica
Enterococcus faecalis [6] = test: microbe, parasite or virus in culture; conditions: MTCC 439; remark: listed apart in the source
Description: Synergistic antibacterial activity against Enterococcus faecalis MTCC 439 assessed as inhibition of bacterial growth incubated overnight in presence of LT-SB7 by serial dilution based spectrophotometer

Salmonella typhi [7] = test: Antibacterial activity against Salmonella typhi assessed as diameter of zone of inhibition at 500 ug/ml by agar disk diffusion method; assay type: functional, Salmonella enterica subsp. enterica serovar Typhi; conditions: Salmonella enterica, read-out: DIZ
Enterococcus faecalis [8] = test: microbe, parasite or virus in culture; conditions: MTCC 439; remark: listed apart in the source
Description: Synergistic antibacterial activity against Enterococcus faecalis MTCC 439 assessed as inhibition of bacterial growth incubated overnight in presence of LT-SB23 by serial dilution based spectrophotometer

Salmonella typhi [9] = test: Synergistic antibacterial activity against Salmonella typhi assessed as inhibition of bacterial growth incubated overnight in presence of LT-SB5 by serial dilution based spectrophotometer; conditions: Salmonella enterica
Bacillus subtilis [10] = test: Antibacterial activity against Bacillus subtilis MTCC 736 assessed as diameter of zone of inhibition at 500 ug/ml by agar disk diffusion method; assay type: functional; conditions: read-out: DIZ
Enterococcus faecalis [11] = test: Antibacterial activity against Enterococcus faecalis MTCC 439 assessed as diameter of zone of inhibition at 500 ug/ml by agar disk diffusion method; assay type: functional; conditions: read-out: DIZ
Bacillus subtilis [12] = test: microbe, parasite or virus in culture; conditions: MTCC 736; remark: listed apart in the source
Description: Synergistic antibacterial activity against Bacillus subtilis MTCC 736 assessed as inhibition of bacterial growth incubated overnight in presence of SB9 by serial dilution based spectrophotometer

Bacillus subtilis [13] = test: Antibacterial activity against Bacillus subtilis MTCC 736 assessed as inhibition of bacterial growth incubated overnight by serial dilution based spectrophotometer; assay type: functional
Escherichia coli = test: microbe, parasite or virus in culture; conditions: MTCC 443
Description: Synergistic antibacterial activity against Escherichia coli MTCC 443 assessed as inhibition of bacterial growth incubated overnight in presence of SB5 by serial dilution based spectrophotometer

Pseudomonas aeruginosa = test: Antibacterial activity against Pseudomonas aeruginosa MTCC 2453 assessed as diameter of zone of inhibition at 500 ug/ml by agar disk diffusion method; assay type: functional; conditions: read-out: DIZ
Salmonella typhi [14] = test: Antibacterial activity against Salmonella typhi assessed as inhibition of bacterial growth incubated overnight by serial dilution based spectrophotometer; assay type: functional, Salmonella enterica subsp. enterica serovar Typhi; conditions: Salmonella enterica
Staphylococcus aureus [15] = test: Bacteriostatic activity against Staphylococcus aureus MTCC 902 assessed as reduction in bacterial growth measured upto 24 hrs by absorbance based assay; assay type: functional, organism-based
Enterococcus faecalis [16] = test: microbe, parasite or virus in culture; conditions: MTCC 439; remark: listed apart in the source
Description: Synergistic antibacterial activity against Enterococcus faecalis MTCC 439 assessed as inhibition of bacterial growth incubated overnight in presence of SB5 by serial dilution based spectrophotometer

Enterococcus faecalis [17] = test: Antibacterial activity against Enterococcus faecalis MTCC 439 assessed as inhibition of bacterial growth incubated overnight by serial dilution based spectrophotometer; assay type: functional
Salmonella typhi [18] = test: Synergistic antibacterial activity against Salmonella typhi assessed as inhibition of bacterial growth incubated overnight in presence of LT-SB7 by serial dilution based spectrophotometer; conditions: Salmonella enterica
Bacillus subtilis [19] = test: microbe, parasite or virus in culture; conditions: MTCC 736; remark: listed apart in the source
Description: Synergistic antibacterial activity against Bacillus subtilis MTCC 736 assessed as inhibition of bacterial growth incubated overnight in presence of LT-SB7 by serial dilution based spectrophotometer

O=C(O)c1cn(C2CC2)c2cc(N3CCNCC3)c(F)cc2c1=O [CIPROFLOXACIN]
MIC (Bacillus subtilis [1]): 1 µg/mL (≈ 3.02 µM) | MIC (Enterococcus faecalis [2]): 0.5 µg/mL (≈ 1.51 µM) | MIC (Bacillus subtilis [3]): 1 µg/mL (≈ 3.02 µM) | zone of inhibition at 500 µg/mL (Staphylococcus aureus [4]): 19 mm | MIC (Salmonella typhi [5]): 0.031 µg/mL | MIC (Enterococcus faecalis [6]): 0.125 µg/mL (≈ 0.377 µM) | zone of inhibition at 500 µg/mL (Salmonella typhi [7]): 18 mm | MIC (Enterococcus faecalis [8]): 0.125 µg/mL (≈ 0.377 µM) | MIC (Salmonella typhi [9]): 0.031 µg/mL | zone of inhibition at 500 µg/mL (Bacillus subtilis [10]): 22 mm | zone of inhibition at 500 µg/mL (Enterococcus faecalis [11]): 18 mm | MIC (Bacillus subtilis [12]): 0.5 µg/mL (≈ 1.51 µM) | MIC (Bacillus subtilis [13]): 1 µg/mL (≈ 3.02 µM) | MIC (Escherichia coli): 0.062 µg/mL (≈ 0.187 µM) | zone of inhibition at 500 µg/mL (Pseudomonas aeruginosa): 24 mm | MIC (Salmonella typhi [14]): 0.5 µg/mL (≈ 1.51 µM) | Activity (Staphylococcus aureus [15]): Active | MIC (Enterococcus faecalis [16]): 0.5 µg/mL (≈ 1.51 µM) | MIC (Enterococcus faecalis [17]): 0.5 µg/mL (≈ 1.51 µM) | MIC (Salmonella typhi [18]): 0.031 µg/mL | MIC (Bacillus subtilis [19]): 0.25 µg/mL (≈ 0.754 µM)

Reference: ChEMBL document CHEMBL6078713, “Synthesis and mechanistic studies of 4-aminoquinoline-Isatin molecular hybrids and Schiff's bases as promising antimicrobial agents” (Eur J Med Chem, 2025)
